Legend:
Format in all cases: in vivo, SD rat
[1] = tested on: MIA (monosodium iodoacetate)-induced osteoarthritis; assay: Bodyweight loading of hind limb in animal model of MIA-induced osteoarthritis (incapacitance tester); settings: compared to MIA group; oral once a day for 21 days, measured every 7 days; FIG. 1
Experimental: To determine the effect of an extract of Alpinia oxyphylla, which has been prepared in the above Example 1, on bodyweight loading in an animal model of MIA-induced osteoarthritis, MIA as an osteoarthritis-inducing material (diluted to 60 mg/ml with 0.9% physiological saline) was administered in an amount of 50 μl to an articular cavity of a right hind limb of 7-week old SD rat to induce osteoarthritis. After that, the animal was orally administered with an extract of Alpinia oxyphylla (150 or 300 mg/kg) once a day for 21 days, while the percentage of bodyweight loading was measured every 7 days. As a positive control group, indomethacin (1 mg/kg) was used.
The bodyweight loading on hind limb was measured by using a paw weight tester (Incapacitance tester, Linton instrument Co., UK, Ser No. 01/45/25). In a tester holder, the rat with induced osteoarthritis tends to stand on a normal paw which has not been administered with MIA due to the pain occurring in the other paw, and thus balance between the weights of two paws was not maintained so that the weight of paw administered with MIA is measured to be relatively lighter than the weight of normal paw. […] Then, by using the weight of paw which has been measured accordingly, percentage of bodyweight loading (%) was calculated based on the following Formula 1. […]

COX-2 = assay: mRNA expression of inflammatory factor in joint with induced osteoarthritis by PCR; settings: compared to MIA-induced increase, FIG. 2
Source text: (§1) From a joint with induced osteoarthritis, mRNA was extracted and the expression of an inflammatory factor (IL-1β, IL-6, TNF-α and COX-2) and a cartilage degeneration-inducing factor (MMP-9) was examined by PCR.

IL-1β = assay: as above; settings: compared to MIA-induced increase, FIG. 2
Source text: as §1

IL-6 = assay: as above; settings: compared to MIA-induced increase, FIG. 2
Source text: as §1

TNF-α = assay: as above; settings: compared to MIA-induced increase, FIG. 2
Source text: as §1

MMP-9 = assay: mRNA expression of cartilage degeneration-inducing factor in joint with induced osteoarthritis by PCR; settings: compared to MIA-induced increase, FIG. 2
Source text: as §1

COc1ccc2c(c1)c(CC(=O)O)c(C)n2C(=O)c1ccc(Cl)cc1 [indomethacin]
percentage of bodyweight loading (%) of hind limb [1]: higher than the MIA-induced osteoarthritis group | expression of COX-2 (inflammatory factor) (COX-2): decreased in significant sense | expression of IL-1β (inflammatory factor) (IL-1β): decreased in significant sense | expression of IL-6 (inflammatory factor) (IL-6): decreased in significant sense | expression of TNF-α (inflammatory factor) (TNF-α): decreased in significant sense | expression of MMP-9 (cartilage degeneration-inducing factor) (MMP-9): decreased in significant sense
